Assay results taken from patent US20240199623A1 (ILDONG PHARMACEUTICAL CO., LTD., priority 2020, published 2024).
≈ marks a conversion by molar mass, not a printed value.

How the values were obtained:
[1] = molecular target: T1, Human recombinant PDE4A1A (Homo sapiens, UniProt P27815); experiment: Human phosphodiesterase 4 (PDE4) inhibition, PDE4A1A; type: biochemical; conditions: read-out: % inhibition range at 10 uM PDE4A1A; 10 uM test compound
T1 construct: purchased BPS Bioscience; host or cells: insect Sf9 cells
Experimental: (§1) […] Human recombinant PDE4A1A, PDE4B 1, PDE4C1 and PDE4D2 are respectively expressed in each host cell (insect Sf9 cells, BPS Bioscience). Preincubation of 10 μM test compounds or vehicle was proceeded with 20 ng/ml PDE4A1A or 4 ng/ml PDE4B 1 or 8 ng/ml PDE4C1 or 5 ng/ml PDE4D2 enzyme in Tris-HCl buffer pH 7.2 for 15 minutes at 25° C. 100 nM fluorescein (FAM) labeled cAMP for another 30 minutes incubation period was added in order to initiate the enzymatic reaction and addition of IMAP binding solution was followed for its termination. Specifically, IMAP complexes with phosphate groups on nucleotide monophosphate generated from cyclic nucleotides through PDE activity. The amount of complex formed is determined by reading spectrofluorimetrical signal at 470 nm/525 nm.

[2] = molecular target: T2, Human recombinant PDE4B 1 (Homo sapiens, UniProt Q07343); experiment: Human phosphodiesterase 4 (PDE4) inhibition, PDE4B 1; type: biochemical; conditions: read-out: % inhibition range at 10 uM PDE4B1; 10 uM test compound
T2 construct: purchased BPS Bioscience; host or cells: insect Sf9 cells
Experimental: as §1

Human recombinant PDE4C1 = molecular target: T3, Human recombinant PDE4C1 (Homo sapiens, UniProt Q08493); experiment: Human phosphodiesterase 4 (PDE4) inhibition, PDE4C1; type: biochemical; conditions: read-out: % inhibition range at 10 uM PDE4C1; 10 uM test compound
T3 construct: purchased BPS Bioscience; host or cells: insect Sf9 cells
Experimental: as §1

Human recombinant PDE4D2 = molecular target: T4, Human recombinant PDE4D2 (Homo sapiens, UniProt Q08499); experiment: Human phosphodiesterase 4 (PDE4) inhibition, PDE4D2; type: biochemical; conditions: read-out: % inhibition range at 10 uM PDE4D2; 10 uM test compound
T4 construct: purchased BPS Bioscience; host or cells: insect Sf9 cells
Experimental: as §1

human wild type-CFTR [3] = molecular target: T5, human wild type-CFTR (Homo sapiens, UniProt P13569); experiment: Cell-based YFP assay; design: expressed in transfected cells; host or cells: CHO-K1 (Chinese hamster ovary); conditions: CHO-K1 cells expressing human wild type-CFTR and YFP-H148Q/I152L; forskolin 20 μM = 100% activity; read-out: Cell-based YFP Assay (EC50) Concentration Range
Procedure, shortened: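 CHO-K1 cells co-expressing human wild-type CFTR and YFP-H148Q/I152L halide sensor, grown 48 h at 37 °C, then in PBS. YFP quenching by I⁻ influx read at 37 °C after adding 140 mM I⁻ solution, sampled every 0.4 s for 14 s. Triplicates averaged; EC50 fitted.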

[4] = Phosphate-buffered saline (PBS) solubility of compounds; type: physicochemical; conditions: aqueous buffer, thermodynamic from solid, PBS pH 7.5, 0.5 mg/mL, vortexed 90 min, filtered, LC-MS/MS, read-out: Solubility Range
Experimental: PBS solutions (pH 7.5) were prepared according to the following compositions and stored at 4° C. Test compounds were dissolved in PBS (pH 7.5) at 0.5 mg/mL and vortexed for 90 min. The PBS solution was sequentially filtered through a 0.45, 1.2, […] syringe filter. Concentration of test compounds were determined using LC-MS/MS with appropriate dilution of the samples.

human wild type-CFTR [5] = molecular target: T5, human wild type-CFTR; experiment: Short-circuit current measurement; type: cell-based; design: expressed in transfected cells; conditions: FRT cells expressing human wild type-CFTR; Forskolin 20 μM signal used as 100% activity; read-out: Short-circuit current measurement (EC50) Concentration range
Procedure, shortened: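 Ussing-chamber short-circuit current in FRT cells expressing human wild-type CFTR, grown on Snapwell inserts. Forskolin, test compounds and CFTRinh-172 added to both apical and basolateral baths; apical membrane current and Isc sampled at 4 Hz.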

T5 sequence (P13569 whole entry): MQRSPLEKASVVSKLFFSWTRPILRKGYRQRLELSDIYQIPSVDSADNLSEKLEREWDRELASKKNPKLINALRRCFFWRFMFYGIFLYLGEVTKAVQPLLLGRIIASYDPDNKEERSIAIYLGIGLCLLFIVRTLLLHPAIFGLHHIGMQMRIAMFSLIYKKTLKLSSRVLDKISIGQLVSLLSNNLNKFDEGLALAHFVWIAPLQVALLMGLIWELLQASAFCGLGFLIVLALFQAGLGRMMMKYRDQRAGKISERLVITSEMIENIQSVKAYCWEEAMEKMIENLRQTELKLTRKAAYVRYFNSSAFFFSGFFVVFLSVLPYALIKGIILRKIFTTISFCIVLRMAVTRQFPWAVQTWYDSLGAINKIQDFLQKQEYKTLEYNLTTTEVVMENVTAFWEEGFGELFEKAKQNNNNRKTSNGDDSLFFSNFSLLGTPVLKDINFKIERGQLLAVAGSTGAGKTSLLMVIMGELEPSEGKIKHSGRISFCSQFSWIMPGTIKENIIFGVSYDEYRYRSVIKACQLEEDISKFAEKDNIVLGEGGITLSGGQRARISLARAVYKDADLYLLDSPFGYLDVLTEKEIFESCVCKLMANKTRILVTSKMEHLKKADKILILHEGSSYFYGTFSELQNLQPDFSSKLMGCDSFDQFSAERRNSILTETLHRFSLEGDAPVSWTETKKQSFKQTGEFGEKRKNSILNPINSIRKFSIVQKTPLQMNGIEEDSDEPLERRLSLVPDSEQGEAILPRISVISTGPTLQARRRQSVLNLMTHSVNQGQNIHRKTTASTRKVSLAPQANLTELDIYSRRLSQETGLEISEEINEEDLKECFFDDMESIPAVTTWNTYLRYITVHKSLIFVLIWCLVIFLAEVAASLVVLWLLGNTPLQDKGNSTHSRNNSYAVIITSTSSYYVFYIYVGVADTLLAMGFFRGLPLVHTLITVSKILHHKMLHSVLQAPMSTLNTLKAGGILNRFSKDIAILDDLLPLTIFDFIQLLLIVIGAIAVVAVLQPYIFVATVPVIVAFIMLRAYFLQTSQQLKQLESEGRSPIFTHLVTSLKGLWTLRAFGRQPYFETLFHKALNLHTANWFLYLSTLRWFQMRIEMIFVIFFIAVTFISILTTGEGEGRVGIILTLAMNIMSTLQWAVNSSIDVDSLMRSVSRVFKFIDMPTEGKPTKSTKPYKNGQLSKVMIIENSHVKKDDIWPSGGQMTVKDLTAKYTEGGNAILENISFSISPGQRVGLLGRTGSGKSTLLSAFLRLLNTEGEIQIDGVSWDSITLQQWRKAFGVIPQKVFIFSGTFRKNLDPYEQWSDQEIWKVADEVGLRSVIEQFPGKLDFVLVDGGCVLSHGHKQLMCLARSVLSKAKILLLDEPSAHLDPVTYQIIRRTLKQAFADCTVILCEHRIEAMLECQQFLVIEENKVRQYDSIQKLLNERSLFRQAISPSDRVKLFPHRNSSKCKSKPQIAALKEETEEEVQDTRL
T3 sequence (Q08493 whole entry): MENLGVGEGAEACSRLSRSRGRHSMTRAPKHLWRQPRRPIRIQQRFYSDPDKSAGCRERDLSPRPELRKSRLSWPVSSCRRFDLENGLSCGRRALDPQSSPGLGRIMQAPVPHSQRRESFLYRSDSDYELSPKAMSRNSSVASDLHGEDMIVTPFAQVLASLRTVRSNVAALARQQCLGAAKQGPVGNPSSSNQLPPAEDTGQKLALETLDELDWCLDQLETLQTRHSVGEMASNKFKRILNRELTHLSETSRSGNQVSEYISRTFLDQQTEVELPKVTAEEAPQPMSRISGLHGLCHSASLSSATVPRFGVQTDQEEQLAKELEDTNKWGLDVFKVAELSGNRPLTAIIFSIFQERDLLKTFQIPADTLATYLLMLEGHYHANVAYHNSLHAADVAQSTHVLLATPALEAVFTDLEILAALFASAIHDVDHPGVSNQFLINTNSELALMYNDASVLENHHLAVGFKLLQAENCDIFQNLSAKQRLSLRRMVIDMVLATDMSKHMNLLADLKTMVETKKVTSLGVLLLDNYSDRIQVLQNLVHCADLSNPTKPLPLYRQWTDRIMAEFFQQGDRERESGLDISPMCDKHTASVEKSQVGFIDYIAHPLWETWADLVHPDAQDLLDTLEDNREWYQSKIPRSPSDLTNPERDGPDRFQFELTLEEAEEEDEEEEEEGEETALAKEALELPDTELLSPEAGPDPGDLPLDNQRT
T1 sequence (P27815 1-647 isoform P27815-4): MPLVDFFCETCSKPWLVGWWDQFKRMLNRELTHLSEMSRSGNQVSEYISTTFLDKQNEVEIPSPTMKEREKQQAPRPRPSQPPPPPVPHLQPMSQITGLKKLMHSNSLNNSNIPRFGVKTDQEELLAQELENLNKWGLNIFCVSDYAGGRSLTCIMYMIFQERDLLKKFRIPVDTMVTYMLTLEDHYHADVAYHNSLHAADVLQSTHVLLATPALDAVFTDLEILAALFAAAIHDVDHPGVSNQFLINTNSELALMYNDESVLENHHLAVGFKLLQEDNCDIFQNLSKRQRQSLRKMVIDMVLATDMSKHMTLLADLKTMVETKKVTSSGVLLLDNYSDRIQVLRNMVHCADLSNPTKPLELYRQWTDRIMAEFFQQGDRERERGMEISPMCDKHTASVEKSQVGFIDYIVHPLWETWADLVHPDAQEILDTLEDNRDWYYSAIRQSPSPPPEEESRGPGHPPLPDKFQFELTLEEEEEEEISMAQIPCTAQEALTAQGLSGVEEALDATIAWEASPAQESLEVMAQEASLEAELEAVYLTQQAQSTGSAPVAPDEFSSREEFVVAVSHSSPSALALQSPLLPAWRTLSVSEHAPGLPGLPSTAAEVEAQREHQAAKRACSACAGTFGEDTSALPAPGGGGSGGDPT
T4 sequence (Q08499 303-809 limits assumed): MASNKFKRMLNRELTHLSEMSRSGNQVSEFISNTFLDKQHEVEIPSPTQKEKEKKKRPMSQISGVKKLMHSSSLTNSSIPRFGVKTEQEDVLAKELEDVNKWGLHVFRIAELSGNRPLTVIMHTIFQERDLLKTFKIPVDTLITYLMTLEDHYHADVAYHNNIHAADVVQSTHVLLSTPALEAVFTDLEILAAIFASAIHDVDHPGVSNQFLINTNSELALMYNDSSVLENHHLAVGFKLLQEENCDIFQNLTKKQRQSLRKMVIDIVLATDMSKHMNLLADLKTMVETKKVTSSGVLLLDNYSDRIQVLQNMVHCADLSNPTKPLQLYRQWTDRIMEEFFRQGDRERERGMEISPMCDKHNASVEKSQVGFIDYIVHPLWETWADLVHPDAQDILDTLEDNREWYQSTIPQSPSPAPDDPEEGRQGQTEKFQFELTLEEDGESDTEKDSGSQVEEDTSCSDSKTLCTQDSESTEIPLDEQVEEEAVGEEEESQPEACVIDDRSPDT
T2 sequence (Q07343 whole entry): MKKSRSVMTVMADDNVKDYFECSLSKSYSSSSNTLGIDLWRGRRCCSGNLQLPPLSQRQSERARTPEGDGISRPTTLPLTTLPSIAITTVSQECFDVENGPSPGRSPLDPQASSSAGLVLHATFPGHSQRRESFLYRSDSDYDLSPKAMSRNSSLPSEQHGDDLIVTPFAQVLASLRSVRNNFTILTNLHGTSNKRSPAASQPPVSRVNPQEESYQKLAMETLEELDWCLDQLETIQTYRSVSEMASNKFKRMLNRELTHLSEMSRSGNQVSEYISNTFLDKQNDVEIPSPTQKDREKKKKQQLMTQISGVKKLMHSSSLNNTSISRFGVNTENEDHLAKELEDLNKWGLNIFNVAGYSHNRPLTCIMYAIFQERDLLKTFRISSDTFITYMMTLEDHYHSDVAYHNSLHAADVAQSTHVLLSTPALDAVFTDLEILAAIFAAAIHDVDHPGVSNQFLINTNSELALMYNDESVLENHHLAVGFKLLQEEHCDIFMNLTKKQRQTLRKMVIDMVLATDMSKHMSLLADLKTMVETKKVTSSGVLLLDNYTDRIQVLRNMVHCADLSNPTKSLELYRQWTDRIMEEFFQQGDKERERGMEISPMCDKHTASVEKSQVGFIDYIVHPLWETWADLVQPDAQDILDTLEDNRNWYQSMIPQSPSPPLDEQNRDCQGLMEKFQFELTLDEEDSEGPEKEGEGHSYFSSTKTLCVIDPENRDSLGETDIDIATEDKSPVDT

Structure (SMILES) | inhibition at 10 µM [1] | inhibition at 10 µM [2] | inhibition at 10 µM (Human recombinant PDE4C1) | inhibition at 10 µM (Human recombinant PDE4D2) | EC50 (human wild type-CFTR [3]) | solubility at 90 min [4] | EC50 (human wild type-CFTR [5])
COc1ccc(-c2ccnc3cc(C(=O)N4CCN(S(=O)(=O)c5ccccc5)[C@@H](C)C4)nn23)cc1OC [Compound 355, (S)-(7-(3,4-dimethoxy-phenyl)pyrazolo[1,5-a]pyrimidin-2-yl)(3-methyl-4-(phenylsulfonyl)piperazin-1-yl)methanone] | > 80% | > 80% | > 80% | > 80% | < 0.2 µM |  | 
COc1ccc(-c2ccnc3cc(C(=O)Nc4ccc(C(=O)N5CCOCC5)cn4)nn23)cc1OC [Compound 135, 7-(3,4-dimethoxyphenyl)-N-(5-(morpholine-4-carbonyl)pyridin-2-yl) pyrazolo[1,5-a] pyrimidine-2-carboxamide] | > 80% | > 80% | > 80% | > 80% | < 0.2 µM | < 0.1 µg/mL | < 0.2 µM
COc1ccc(-c2ccnc3cc(C(=O)N[C@H]4CC[C@H](C(=O)OC)CC4)nn23)cc1OC [Compound 10, methyl (1r,4r)-4-(7-(3,4-dimethoxyphenyl)pyrazolo[1,5-a]pyrimidine-2-carboxamido)cyclohexane-1-carboxylate] | > 80% | > 80% | > 80% | > 80% |  | 0.1 to 10 µg/mL (≈ 0.228 to 22.8 µM) | 
CCOc1ccc(NC(=O)c2cc3nccc(-c4ccc(OC)nc4)n3n2)cc1 [Compound 323, N-(4-ethoxyphenyl)-7-(6-methoxypyridin-3-yl) pyrazolo[1,5-a]pyrimidine-2-carboxamide] | < 50% | 50 to 80% | < 50% | < 50% | ≥ 2 µM |  | 
COC(=O)c1ccccc1NC(=O)c1cc2nccc(-c3ccc(OC)c(OC)c3)n2n1 [Compound 7, methyl 2-(7-(3,4-dimethoxyphenyl)pyrazolo [1,5-a]pyrimidine-2-carboxamido)benzoate] | < 50% | < 50% | < 50% | < 50% |  | < 0.1 µg/mL | 
COC(=O)c1ccc(NC(=O)c2cc3nccc(-c4ccc(OC)c(OC)c4)n3n2)c(F)c1 [Compound 136, methyl 4-(7-(3,4-dimethoxyphenyl)pyrazolo[1,5-a]pyrimidine-2-carboxamido)-3-fluorobenzoate] | > 80% | > 80% | > 80% | > 80% |  | < 0.1 µg/mL | 
COc1ccc(-c2ccnc3cc(C(=O)N4CCN(C(=O)c5ccccn5)[C@@H](C)C4)nn23)cc1OC [Compound 380, (S)-(7-(3,4-dimethoxyphenyl)pyrazolo[1,5-a]pyrimidin-2-yl) (3-methyl-4-picolinoylpiperazin-1-yl)methanone] | > 80% | > 80% | 50 to 80% | > 80% | < 0.2 µM |  | 
COc1ccc(-c2ccnc3cc(C(=O)Nc4ccc(N5CCOCC5)cc4)nn23)cc1OC [Compound 194, 7-(3,4-dimethoxyphenyl)-N-(4-morpholinophenyl)pyrazolo [1,5-a]pyrimidine-2-carboxamide] | > 80% | > 80% | > 80% | > 80% | < 0.2 µM |  | 
COc1ccc(-c2ccnc3cc(C(=O)N4CCN(C(=O)c5cccs5)[C@@H](C)C4)nn23)cc1OC [Compound 352, (S)-(7-(3,4-dimethoxyphenyl)pyrazolo[1,5-a]pyrimidin-2-yl)(3-methyl-4-(thiophene-2-carbonyl)piperazin-1-yl) methanone] | > 80% | > 80% | > 80% | > 80% | < 0.2 µM |  | 
COC(=O)c1ccc(NC(=O)c2cc3ncc(-c4ccc(OC)c(OC)c4)cn3n2)cc1 [Compound 239, methyl 4-(6-(3,4-dimethoxyphenyl)pyrazolo[1,5-a]pyrimidine-2-carboxamido)benzoate] | < 50% | < 50% | < 50% | < 50% | ≥ 2 µM |  | 
COc1ccc(-c2ccnc3cc(NC(=O)Nc4ccc(C(=O)N5CCOCC5)cc4)nn23)cc1OC [Compound 129, 1-(7-(3,4-dimethoxyphenyl)pyrazolo[1,5-a]pyrimidin-2-yl)-3-(4-(morpholine-4-carbonyl)phenyl)urea] | > 80% | > 80% | > 80% | > 80% | 0.2 to 2 µM |  | ≥ 2 µM
CCOc1ccc(C(=O)Nc2cc3nccc(-c4ccc(OC)c(OC)c4)n3n2)cc1 [Compound 287, N-(7-(3,4-dimethoxyphenyl)pyrazolo[1,5-a]pyrimidin-2-yl)-4-ethoxybenzamide] | 50 to 80% | 50 to 80% | < 50% | 50 to 80% | 0.2 to 2 µM |  | 
COc1ccc(-c2ccnc3cc(C(=O)N4CC[C@@H](NC(=O)c5ccccc5)C4)nn23)cc1OC [Compound 384, (R)-N-(1-(7-(3,4-dimethoxyphenyl)pyrazolo[1,5-a]pyrimidine-2-carbonyl)pyrrolidin-3-yl)benzamide] | > 80% | > 80% | 50 to 80% | > 80% | < 0.2 µM |  | 
COC(=O)C(=Cc1ccccc1)NC(=O)c1cc2nccc(-c3ccc(OC)c(OC)c3)n2n1 [Compound 105, methyl 2-(7-(3,4-dimethoxyphenyl)pyrazolo [1,5-a]pyrimidine-2-carboxamido) 3-phenylacrylate] | > 80% | > 80% | > 80% | > 80% | < 0.2 µM | < 0.1 µg/mL | 0.2 to 2 µM
COc1ccc(-c2ccnc3cc(C(=O)N4CCN(C(=O)c5ccccc5)[C@@H](C)C4)nn23)cc1OC [Compound 210, (S)-(4-benzoyl-3-methylpiperazin-1-yl)(7-(3,4-dimethoxyphenyl)pyrazolo[1,5-a]pyrimidin-2-yl)methanone] | > 80% | > 80% | > 80% | > 80% |  | 0.1 to 10 µg/mL (≈ 0.206 to 20.6 µM) | 
COC(=O)c1ccc(NC(=O)c2cc3nccc(-c4ccc(OC)c(OC)c4)n3n2)cc1OC [Compound 192, methyl 4-(7-(3,4-dimethoxyphenyl)pyrazolo [1,5-a]pyrimidine-2-carboxamido)-2-methoxybenzoate] | > 80% | > 80% | > 80% | > 80% | < 0.2 µM |  | 
COc1ccc(-c2ccnc3cc(C(=O)Nc4ccc(OCCN5CCOCC5)cc4)nn23)cc1OC [Compound 198, 7-(3,4-dimethoxyphenyl)-N-(4-(2-morpholinoethoxy)phenyl)pyrazolo[1,5-a]pyrimidine-2-carboxamide] | > 80% | > 80% | > 80% | > 80% | < 0.2 µM |  | < 0.2 µM
COc1ccc(-c2ccnc3cc(C(=O)Nc4ccc(C(=O)N5CCOCC5)cc4)nn23)cc1OC [Compound 41, 7-(3,4-dimethoxyphenyl)-N-(4-(morpholine-4-carbonyl)phenyl)pyrazolo [1,5-a]pyrimidine-2-carboxamide] | > 80% | > 80% | > 80% | > 80% |  | < 0.1 µg/mL | 
